Consider 36 compounds from patent US11384055B2 (BIOMARIN PHARMACEUTICAL INC., priority 2017, dated 2022).

pIC50: −log10 of the molar value.

One may read the pIC50 as the negative decadic logarithm of the IC50, by convention in mol/L.

The target in one assay is T1, Human GO (Homo sapiens, UniProt Q9UJM8).
T1 construct: purchased Novus Biologicals NBP1-72412
T1 sequence (Q9UJM8 1-370): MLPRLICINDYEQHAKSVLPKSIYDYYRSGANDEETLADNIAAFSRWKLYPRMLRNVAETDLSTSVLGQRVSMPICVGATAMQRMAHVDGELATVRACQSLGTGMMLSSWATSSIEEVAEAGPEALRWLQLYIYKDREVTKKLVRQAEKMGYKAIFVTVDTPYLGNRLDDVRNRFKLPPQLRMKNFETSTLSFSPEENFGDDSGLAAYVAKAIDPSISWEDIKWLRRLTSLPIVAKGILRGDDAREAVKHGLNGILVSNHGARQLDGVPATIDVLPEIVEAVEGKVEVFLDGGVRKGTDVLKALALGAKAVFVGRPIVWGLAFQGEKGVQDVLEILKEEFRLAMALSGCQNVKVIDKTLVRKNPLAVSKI
As to the kind of experiment: GO enzymatic assay (coupled fluorescence/HRP assay, glycolate substrate). It is filed as biochemical.
Conditions: not given
In short, it runs like this:
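Human GO incubated with glycolate substrate in 50 mM potassium phosphate, pH 7, with varying inhibitor concentrations. Activity read by coupled HRP fluorescence. IC50 taken from variable-slope sigmoidal dose-response fits of percent inhibition relative to DMSO control.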
With `O=C(O)c1[nH]nnc1Oc1ccc(C2CCCCC2)cc1` [Compound 273, 4-(4-cyclohexylphenoxy)-1H-1,2,3-triazole-5-carboxylic acid], the negative logarithm of the IC50 (pIC50) was above 7.00.

The same assay, now with this note: Table 2; read-out: Range (range of IC50 values calculated from the enzymatic assays).
Take `O=C(OCOC(=O)c1[nH]nnc1OC1CCc2cc(Cl)c(Cl)cc2C1)c1ccccc1` (stereo not drawn) [Compound 261, (benzoyloxy)methyl 4-((6,7-dichloro-1,2,3,4-tetrahydronaphthalen-2-yl)oxy)-1H-1,2,3-triazole-5-carboxylate]: the pIC50 was 5.00 to 6.00. Still for that read-out and setting: to `O=C(O)c1[nH]nnc1Oc1cccc(OCC2CC2)c1` [Compound 262, 4-(3-(cyclopropylmethoxy)phenoxy)-1H-1,2,3-triazole-5-carboxylic acid 2,2,2-trifluoroacetate] belongs above 7.00. Same read-out and setting: for `O=C(O)c1[nH]nnc1Oc1ccc(C2CCOCC2)cc1` [Compound 263, 4-(4-(tetrahydro-2H-pyran-4-yl)phenoxy)-1H-1,2,3-triazole-5-carboxylic acid 2,2,2-trifluoroacetate] the value was above 7.00; for `O=C(O)c1[nH]nnc1COc1ccc(Cl)c(Cl)c1` [Compound 264, 4-((3,4-dichlorophenoxy)methyl)-1H-1,2,3-triazole-5-carboxylic acid 2,2,2-trifluoroacetate], above 7.00. The same measure, in the same setting: to `O=C(O)c1[nH]nnc1COc1ccc(-c2ccc(OC(F)(F)F)cc2)cc1` [Compound 265, 4-(((4′-(trifluoromethoxy)-[1,1′-biphenyl]-4-yl)oxy)methyl)-1H-1,2,3-triazole-5-carboxylic acid] belongs above 7.00; to `O=C(O)c1[nH]nnc1COc1ccc(-c2ccc(Cl)c(Cl)c2)cc1` [Compound 266, 4-(((3′,4′-dichloro-[1,1′-biphenyl]-4-yl)oxy)methyl)-1H-1,2,3-triazole-5-carboxylic acid 2,2,2-trifluoroacetate], above 7.00. Take `CCC(=O)OCOC(=O)c1[nH]nnc1OC1CCc2cc(Cl)c(Cl)cc2C1` (stereo not drawn) [Compound 267, (propionyloxy)methyl 4-((6,7-dichloro-1,2,3,4-tetrahydronaphthalen-2-yl)oxy)-1H-1,2,3-triazole-5-carboxylate]: the pIC50 is above 7.00.

For the compound `O=C(O)c1[nH]nnc1Oc1ccc(C2CC(F)(F)C2)cc1` [Compound 268, 4-(4-(3,3-difluorocyclobutyl)phenoxy)-1H-1,2,3-triazole-5-carboxylic acid], the pIC50 was above 7.00.

For the compound `O=C(O)c1[nH]nnc1OCc1ccc(Cl)c(Cl)c1` [Compound 269, 4-((3,4-dichlorobenzyl)oxy)-1H-1,2,3-triazole-5-carboxylic acid], the pIC50 was above 7.00. On the same count and under the same terms, to `O=C(O)c1[nH]nnc1OC1CCN(c2ccc(Cl)cc2)CC1` [Compound 270, 4-((1-(4-chlorophenyl)piperidin-4-yl)oxy)-1H-1,2,3-triazole-5-carboxylic acid 2,2,2-trifluoroacetate] belongs above 7.00; to `O=C(O)c1[nH]nnc1OC1Cc2cc(F)c(F)cc2C1` [Compound 271, 4-((5,6-difluoro-2,3-dihydro-1H-inden-2-yl)oxy)-1H-1,2,3-triazole-5-carboxylic acid], above 7.00; to `O=C(O)c1[nH]nnc1OCc1ccc(-c2ccc(OC(F)(F)F)cc2)cc1` [Compound 274, 4-((4′-(trifluoromethoxy)-[1,1′-biphenyl]-4-yl)methoxy)-1H-1,2,3-triazole-5-carboxylic acid], above 7.00. Same read-out and setting: to `O=C(O)c1[nH]nnc1OC1CCC(c2ccc(OC(F)(F)F)cc2)C1` (stereo not drawn) [Compound 275, 4-((3-(4-(trifluoromethoxy)phenyl)cyclopentyl)oxy)-1H-1,2,3-triazole-5-carboxylic acid] belongs above 7.00; to `O=C(O)c1[nH]nnc1SC1CCc2cc(Cl)c(Cl)cc2C1` (stereo not drawn) [Compound 277, 4-((6,7-dichloro-1,2,3,4-tetrahydronaphthalen-2-yl)thio)-1H-1,2,3-triazole-5-carboxylic acid], above 7.00. On the same count and under the same terms, for `O=C(OCOC(=O)c1[nH]nnc1Sc1ccc(-c2ccc(N3CCCCC3)cc2)cc1)c1ccccc1` [Compound 278, (benzoyloxy)methyl 4-((4′-(piperidin-1-yl)-[1,1′-biphenyl]-4-yl)thio)-1H-1,2,3-triazole-5-carboxylate] the value was 5.00 to 6.00; for `O=C(O)c1[nH]nnc1Oc1ccc(C2CCC(F)(F)CC2)cc1` [Compound 279, 4-(4-(4,4-difluorocyclohexyl)phenoxy)-1H-1,2,3-triazole-5-carboxylic acid], above 7.00. Take `O=C(O)c1[nH]nnc1OC1CCC2(CC1)CC2` [Compound 280, 4-(spiro[2.5]octan-6-yloxy)-1H-1,2,3-triazole-5-carboxylic acid 2,2,2-trifluoroacetate]: the pIC50 was above 7.00. On the same count and under the same terms, to `CC1(C)CCCc2cc(Oc3nn[nH]c3C(=O)O)ccc21` [Compound 281, 4-((5,5-dimethyl-5,6,7,8-tetrahydronaphthalen-2-yl)oxy)-1H-1,2,3-triazole-5-carboxylic acid] belongs 6.00 to 7.00.

On to `O=C(O)c1[nH]nnc1OC1Cc2ccc(OC(F)(F)F)cc2C1` (stereo not drawn) [Compound 282, 4-((5-(trifluoromethoxy)-2,3-dihydro-1H-inden-2-yl)oxy)-1H-1,2,3-triazole-5-carboxylic acid], for which the pIC50 was above 7.00. On the same count and under the same terms, to `O=C(O)c1[nH]nnc1OC1CCC2(CCCCC2)CC1` [Compound 283, 4-(spiro[5.5]undecan-3-yloxy)-1H-1,2,3-triazole-5-carboxylic acid] belongs above 7.00. Same read-out and setting: to `O=C(O)c1[nH]nnc1OC1CCC2(CCCC2)CC1` [Compound 284, 4-(spiro[4.5]decan-8-yloxy)-1H-1,2,3-triazole-5-carboxylic acid] belongs above 7.00; to `O=C(O)c1[nH]nnc1OC1CCN(c2cc(Cl)cc(Cl)c2)CC1` [Compound 285, 4-((1-(3,5-dichlorophenyl)piperidin-4-yl)oxy)-1H-1,2,3-triazole-5-carboxylic acid 2,2,2-trifluoroacetate], above 7.00; to `O=C(O)c1[nH]nnc1OC1CCN(c2ccc(Cl)c(Cl)c2)CC1` [Compound 286, 4-((1-(3,4-dichlorophenyl)piperidin-4-yl)oxy)-1H-1,2,3-triazole-5-carboxylic acid 2,2,2-trifluoroacetate], above 7.00. Still for that read-out and setting: to `O=C(O)c1[nH]nnc1OC1CCN(c2ccc(C(F)(F)F)cc2)CC1` [Compound 287, 4-((1-(4-(trifluoromethyl)phenyl)piperidin-4-yl)oxy)-1H-1,2,3-triazole-5-carboxylic acid 2,2,2-trifluoroacetate] belongs above 7.00. For the compound `O=C(O)c1[nH]nnc1Oc1cc(OCC2CC2)cc(C(F)(F)F)c1` [Compound 288, 4-(3-(cyclopropylmethoxy)-5-(trifluoromethyl)phenoxy)-1H-1,2,3-triazole-5-carboxylic acid], the pIC50 is 6.00 to 7.00. `O=C(O)c1[nH]nnc1Oc1cc(Cl)cc(OCC2CC2)c1` [Compound 289, 4-(3-chloro-5-(cyclopropylmethoxy)phenoxy)-1H-1,2,3-triazole-5-carboxylic acid 2,2,2-trifluoroacetate]: the pIC50 was above 7.00. `O=C(O)c1[nH]nnc1Oc1cccc(OCC2CCCC2)c1` [Compound 290, 4-(3-(cyclopentylmethoxy)phenoxy)-1H-1,2,3-triazole-5-carboxylic acid 2,2,2-trifluoroacetate]: the pIC50 is above 7.00.

Regarding `O=C(O)c1[nH]nnc1OC1CCN(c2cc(Cl)ccc2Cl)CC1` [Compound 291, 4-((1-(2,5-dichlorophenyl)piperidin-4-yl)oxy)-1H-1,2,3-triazole-5-carboxylic acid 2,2,2-trifluoroacetate], the pIC50 is above 7.00. Same read-out and setting: for `O=C(O)c1[nH]nnc1Oc1ccc(Cl)c(OCC2CC2)c1` [Compound 292, 4-(4-chloro-3-(cyclopropylmethoxy)phenoxy)-1H-1,2,3-triazole-5-carboxylic acid] the value was above 7.00. Still for that read-out and setting: to `O=C(O)c1[nH]nnc1Oc1cc(OCC2CC2)ccc1Cl` [Compound 293, 4-(2-chloro-5-(cyclopropylmethoxy)phenoxy)-1H-1,2,3-triazole-5-carboxylic acid] belongs above 7.00; to `O=C(O)c1[nH]nnc1Oc1ccc(C(F)(F)F)c(OCC2CC2)c1` [Compound 295, 4-(3-(cyclopropylmethoxy)-4-(trifluoromethyl)phenoxy)-1H-1,2,3-triazole-5-carboxylic acid], above 7.00.

On to `O=C(O)c1[nH]nnc1Oc1ccc(-c2ccc(N3CCC(F)(F)CC3)cc2)cc1` [Compound 297, 4-((4′-(4,4-difluoropiperidin-1-yl)-[1,1′-biphenyl]-4-yl)oxy)-1H-1,2,3-triazole-5-carboxylic acid 2,2,2-trifluoroacetate], for which the pIC50 is above 7.00. Same read-out and setting: for `O=C(O)c1[nH]nnc1OCC1CCC(c2ccc(OC(F)(F)F)cc2)CC1` (stereo not drawn) [Compound 298, 4-((4-(4-(trifluoromethoxy)phenyl)cyclohexyl)methoxy)-1H-1,2,3-triazole-5-carboxylic acid] the value was above 7.00.

The same assay, now with this note: Table 3; read-out: Range (range of IC50 values calculated from the enzymatic assays).
Take `O=C(O)c1[nH]nnc1OC(Cc1ccc(Cl)cc1)Cc1ccc(Cl)cc1` [Compound 294, 4-((1,3-bis(4-chlorophenyl)propan-2-yl)oxy)-1H-1,2,3-triazole-5-carboxylic acid]: the pIC50 is above 7.00. The same measure, in the same setting: for `O=C(O)c1[nH]nnc1OC(CCc1ccccc1)c1ccccc1` (stereo not drawn) [Compound 296, 4-(1,3-diphenylpropoxy)-1H-1,2,3-triazole-5-carboxylic acid] the value was below 5.00.
